Assay results reported in patent US20150366877A1, “METHODS OF TREATMENT OF HUMAN CYTOMEGALOVIRUS INFECTION AND DISEASES WITH BROMODOMAIN INHIBITORS” (Washington University, priority 2013, published 2015).
Where two headings read alike, the source gives them in different places.

Key:
HCMV [1] = assay: Anti-HCMV activity in cultured primary human fibroblasts; type: cell-based, Human cytomegalovirus
[2] = test system: HCMV laboratory strain AD169-GFP; assay: microbe, parasite or virus in culture; type: cell-based, Human cytomegalovirus; conditions: Human betaherpesvirus 5, AD169, HFF
Experimental: (§1) Drug effects were calculated as a percentage of reduction in GFPU in the presence of each drug concentration comported to the GFPU determined in the absence of drug. The dose-response curves were calculated using the GraphPad Prism 6 (GraphPad Software, USA),
(§2) In these experiments, the inventors determined the IC50 and IC90 values of respective BET bromodomain inhibitors against HCMV infection using fluorescence reduction assay (FIG. 9; Table 3) s.

[3] = test system: HCMV clinical strain TR-GFP; assay: microbe, parasite or virus in culture; type: cell-based, Human cytomegalovirus; conditions: Human betaherpesvirus 5, HFF
Experimental: as §1, §2

HCMV [4] = assay: Administration to a patient infected with HCMV (HCMV titers); type: in vivo, Human cytomegalovirus
Experimental: A patient is infected with HCMV. A health practitioner administers an amount calculated to provide 1 μM of the bromodomain inhibitor GSK525762A by intraperitoneal injection. The patient's HCMV titers decrease.

[5] = test system: HCMV late proteins (pp71, pp150 and pp28); assay: Immunoblot analysis of HCMV proteins in infected HFFs; type: cell-based, Human cytomegalovirus; conditions: MOI 3, different concentrations, 24, 48 and 72 hours post infection
Experimental: The method is as described by Perng et al. 2011. HFFs were infected with HCMV, strain AD169, at an MOI of 3 in the presence of different concentrations of JQ1. Culture media was changed every 24 hours to maintain the concentration of JQ1. Cells were harvested at 24, 48 and 72 hours post infection, HCMV proteins, immediate-early protein (IE1), early protein (UL69), and late proteins (pp71, pp150 and pp28) were determined by immunoblot analysis. (FIG. 4)

[6] = test system: HCMV clinical strain TR-GFP; type: cell-based, Human cytomegalovirus
HCMV, strain AD169 = assay: TCID50 assay of viral progeny in culture media, AD169-infected HFFs; type: cell-based, Human cytomegalovirus; conditions: for reduction of viral titer: 125 nM; for IC50: Human betaherpesvirus 5, AD169, 120 h
Experimental: In this experiment, the inventors used TCID50 assays to determine the amounts of infectious viral particle in culture supernatants release from HCMV-infected cells, HFFs were infected with HCMV, strain AD169, at an MOI of 3 in the presence of different concentrations of JQ1. Culture media was changed every 24 hours to maintain the concentration of JQ1. At 5 (FIG. 2A) and 6 (FIG. 2B) days post infection (DPI), infected culture media was collected and titers of viral progeny in media was determined by TCID50 assay as described by Perng et al., 2011. The detection limit is indicated by the dashed line. (FIG. 2)
HFFs were infected with HCMV, strain AD 169, at an MOI of 3 in the presence of JQ1 at the range of 0-2000 nM. Culture media was changed every 24 hours to maintain the concentration of JQ1. At 5 days post infection, viral titers were determined by TCID50. […] These calculated IC50 values are much lower than published values used in the treatment of cancer.

[7] = test system: HCMV laboratory strain AD169-GFP; assay: Time of addition assay on HCMV replication (GFP units); type: cell-based, Human cytomegalovirus; conditions: fixed concentration ~6.5×IC50, added at indicated hpi, GFP units after 7 days
[8] = test system: fatty acid synthase (FASN) and solute carrier family 38 member 5 (SLC38A5); assay: RNA-seq differential expression of FASN and SLC38A5 in HCMV-infected HFF; type: cell-based, human; conditions: 250 uM, MOI 3, 48 hpi
Experimental: HFF cells were mock-infected or HCMV infected with laboratory strain AD169-GFP at a MOI of 3. (FIG. 12A) HFF cells were infected with AD169-GFP at a MOI of 3 in the presence or absence of […] (+)-JQ-1. (FIG. 12B) Cells from both (A) and (B) were harvested at 48 hpi and the total RNA was extracted using a column-based RNA purification kit (Qiagen). RNA integrity was evaluated with a Nano-drop spectrometer (NanoDrop, Wilmington, Del.). Messenger RNA purification, fragmentation, construction of sequencing library and sequencing were performed. The differential expression profiles of two c-Myc inducible genes, fatty acid synthase (FASN) and solute carrier family 38 member 5 (SLC38A5), were determined using an EdgeR procedure.

[9] = test system: HCMV, strain AD169 infected human foreskin fibroblasts; assay: Phase-contrast/fluorescence microscopy of HCMV-infected HFF (cytomegaly morphology); type: cell-based, Human cytomegalovirus; conditions: 500 nm
Experimental: In these experiments, human foreskin fibroblasts (HFF) were infected with HCMV, strain AD169, at a multiplicity of infection (MOI) of 3 in the presence or absence of JQ1 […]. Culture media was changed every 24 hours to maintain the concentration of JQ1. Infected cells were examined by phase-contrast or fluorescence microscopy at 72 or 96 hours post infection (hpi). “Cytomegalic” cells appear larger in size with a characteristic intranuclear, homogenous, eosinophilic inclusion which can occupy the entire nucleus of the cell.

[10] = test system: HCMV clinical strain Toledo; assay: TCID50 assay of culture supernatant (release of viral particles), Toledo; type: cell-based, Human cytomegalovirus; conditions: Human betaherpesvirus 5, MOI 3, 5 dpi
Experimental: (§3) In these experiments, the inventors used TCID50 assays to quantify the IC50 of (+)-JQ-1 in both HCMV laboratory-adapted and clinical strains (FIG. 9; Table 5). HFFs were infected with laboratory strain. AD169-GFP or laboratory strains FIXGFP & Toledo at an MOI of 3 in the presence of (+)-JQ-1 at the range of 0-2,000 nM. Culture media were changed every 24 hrs to maintain the concentration of JQ1. At 5 dpi, viral titers were determined by TCID50.

[11] = test system: HCMV laboratory strain AD169-GFP; assay: TCID50 assay of culture supernatant (release of viral particles), AD169-GFP; type: cell-based, Human cytomegalovirus; conditions: Human betaherpesvirus 5, AD169
Experimental: as §3

[12] = test system: HCMV clinical strain FIX-GFP; assay: TCID50 assay of culture supernatant (release of viral particles), FIX-GFP; type: cell-based, Human cytomegalovirus; conditions: Human betaherpesvirus 5
Experimental: as §3

HCMV AD169 strain = type: cell-based, Human cytomegalovirus

COc1cc2c(cc1-c1c(C)noc1C)ncc1[nH]c(=O)n(C(C)c3ccccn3)c12 (stereo in doubt) [I-BET151, 7-(3,5-Dimethyl-1,2-oxazol-4-yl)-8-methoxy-1-[(1R)-1-(2-pyridinyl)ethyl]-1,3-dihydro-2H-imidazo[4,5-c]quinolin-2-one]
Concentration to inhibit HCMV replication (HCMV [1]): 0.391 to 0.781 µM
IC50 [2]: 160 nM
IC90 [2]: 550 nM
IC50 [3]: 110 nM
IC90 [3]: 160 nM
patient's HCMV titers (HCMV [4]; amount calculated to provide 0.5 μM, intraperitoneal injection): decrease

Cc1sc2c(c1C)C(c1ccc(Cl)cc1)=N[C@@H](CC(=O)OC(C)(C)C)c1nnc(C)n1-2 [(+)-JQ1, 4-(4-chlorophenyl)-2,3,9-trimethyl-1,1-dimethylethyl ester-6H-thieno[3,2-f][1,2,4]triazolo[4,3-}{1,4}diazepine-6S-acetic acid]
accumulation of HCMV late proteins [5]: modestly inhibits
production of infectious viral particles (EM analysis) [6]: blocks the production of infectious viral particles
reduction of viral titer (HCMV, strain AD169; 5 days post infection): approximately 1000 fold
reduction of viral titer (HCMV, strain AD169; 6 days post infection): greater than 1000 fold
viral titer (HCMV, strain AD169; 250 nM, 5 days post infection): further reduced the viral titer
viral titer (HCMV, strain AD169; 250 nM, 6 days post infection): undetectable
viral titer (HCMV, strain AD169; 500 nM, 5 days post infection): undetectable
viral titer (HCMV, strain AD169; 500 nM, 6 days post infection): undetectable
IC50 (HCMV, strain AD169; read-out: IC50 (50% viral replication inhibitory concentration), AD169, MOI 3, 5 days post infection, calculated using four parameters): 21.6 nM
IC50 (HCMV, strain AD169; read-out: IC50 (50% viral replication inhibitory concentration), AD169, MOI 3, 5 days post infection, calculated using three parameters): 17.8 nM
effect of the time of addition on HCMV replication [7]: block HCMV infections regardless of times post infection
IC50 [2]: 77 nM
IC90 [2]: 210 nM
IC50 [3]: 39 nM
IC90 [3]: 93 nM
up-regulation of FASN and SLC38A5 by HCMV infection [8]: up-regulation is reversed
morphology of infected HFF cells ([9]; MOI 3, 72 hours post infection): lost the “cytomegalic” morphology and an accumulation of dead cells was present
morphology of infected HFF cells ([9]; MOI 3, 96 hours post infection): lost the “cytomegalic” morphology and a greater accumulation of floating dead cells were present
IC50 [10]: 22 nM
IC90 [10]: 37 nM
IC50 [11]: 18 nM
IC90 [11]: 49 nM
patient's HCMV titers (HCMV [4]; therapeutically effective amount, intraperitoneal injection): decrease
IC50 [12]: 18 nM
IC90 [12]: 31 nM
production of infectious viral particles (electron micrographs) (HCMV AD169 strain): blocks the production of infectious viral particles

CCOC(=O)Nc1cc(-c2ccc(C)c(NS(C)(=O)=O)c2)nn2c(C)nnc12 [Bromosporine, N-[6-(3-methanesulfonamido-4-methylphenyl)-3-methyl-[1,2,4]triazolo[4,3-b]pyridazin-8-yl]carbamate]
IC50 [2]: 290 nM
IC90 [2]: 640 nM

Cc1sc2c(c1C)C(c1ccc(Cl)cc1)=N[C@@H](CC(N)=O)c1nnc(C)n1-2 [CPI-203, (S)-2-(4-(4-chlorophenyl)-2,3,9-trimethyl-6H-thieno [3,2-f][1,2,4]triazolo[4,3-a][1,4]diazepin-6-yl)acetamide]
IC50 [2]: 40 nM
IC90 [2]: 140 nM

Nc1ccn(C[C@@H](CO)OCP(=O)(O)O)c(=O)n1 [Cidofovir]
IC50 [2]: 150 nM
IC90 [2]: 1080 nM

Nc1nc(O)c2ncn(COC(CO)CO)c2n1 [Ganciclovir]
IC50 [2]: 1780 nM
IC90 [2]: 25000 nM

CCNC(=O)C[C@@H]1N=C(c2ccc(Cl)cc2)c2cc(OC)ccc2-n2c(C)nnc21 [I-BET762, 2-[(4S)-6-(4-chlorophenyl)-8-methoxy-1-methyl-4H-[1,2,4]triazolo[4,3-a][1,4]benzodiazepine-4-yl]-N-ethylacetamide]
effect of the time of addition on HCMV replication [7]: block HCMV infections regardless of times post infection
patient's HCMV titers (HCMV [4]; amount calculated to provide 1 μM, intraperitoneal injection): decrease

COc1cccc(N2CCN(C3=Nc4c(F)cccc4[C@H](CC(=O)O)N3c3cc(C(F)(F)F)ccc3OC)CC2)c1 [Letermovir]
effect of the time of addition on HCMV replication [7]: cannot control the viral infection after 48 hours post-infection
IC50 [2]: 4.1 nM
IC90 [2]: 5.8 nM

Cc1sc2c(c1C)C(c1ccc(Cl)cc1)=N[C@@H](CC(=O)Nc1ccc(O)cc1)c1nnc(C)n1-2 [OTX-015, (S)-2-[4-(4-chlorophenyl)-2,3,9-trimethyl-6H-thieno [3,2-f][1,2,4]triazolo-[4,3-a][1,4]diazepin-6-yl]-N-(4-hydroxyphenyl)acetamide]
effect of the time of addition on HCMV replication [7]: block HCMV infections regardless of times post infection
IC50 [2]: 69 nM
IC90 [2]: 210 nM
IC50 [3]: 29 nM
IC90 [3]: 85 nM
patient's HCMV titers (HCMV [4]; therapeutically effective amount, oral administration): decrease

COc1ccccc1S(=O)(=O)Nc1ccc2c(c1)CN(C)C(=O)N2 [PFI-1, 2-Methoxy-N-(3-methyl-2-oxo-1,2,3,4-tetrahydro-6-quinazolinyl)benzenesulfonamide]
IC50 [2]: 790 nM
IC90 [2]: 2560 nM
IC50 [3]: 420 nM
IC90 [3]: 1220 nM

COc1cc(OC)c2c(=O)[nH]c(-c3cc(C)c(OCCO)c(C)c3)nc2c1 [RVX-208, 2-[4-(2-hydroxyethoxy)-3,5-dimethyl-phenyl]-5,7-dimethoxy-3H-quinazolin-4-one]
Concentration to inhibit HCMV replication (HCMV [1]): 14.063 to 28.125 µM
IC50 [2]: 7930 nM
IC90 [2]: 31100 nM
IC50 [3]: 3160 nM
IC90 [3]: 6670 nM
patient's HCMV titers (HCMV [4]; amount calculated to provide 19 μM, intraperitoneal injection): decrease
